The values that follow come from paper doi:10.1101/2024.06.10.598391v1 (bioRxiv, 2024).

A short description of data set [1]: Micelle morphology by negative-stain TEM. The note with it: 5 µM; for Morphology: negative-stain TEM (NanoW), 120 kV, categories by L/D; for Sphere diameter / Cylinder length: negative-stain TEM. Type of data set: physicochemical.
Data set [2] in a line: Secondary structure by circular dichroism. Type of data set: physicochemical. Conditions: CD, 40 μM in PBS; for combined α-helix and random coil content: sum of α-helix and random coil; for organized secondary structure (α-helix and β-sheet): sum of α-helix and β-sheet. In general terms: CD spectra are sensitive to the conformation of chiral molecules.
The test system of data set [3] is RAW 264.7 (macrophage-like cells - Mφs). As to the kind of experiment: Cell viability of LPS-treated Mφs by flow cytometry. In kind it is cell-based, murine. Conditions: for cell viability relative to untreated cells: 10 µM. For orientation: A flow cytometer gives signals particle by particle.
For data set [4], the system named is secreted tumor necrosis factor-α (TNF-α) of LPS-activated RAW 264.7 Mφs. The data set is described as follows: TNF-α secretion of LPS-activated Mφs. In kind it is cell-based, murine. Conditions: 6 h, ELISA.
Data set [5] has as its system RAW 264.7 (macrophage-like cells - Mφs). The data set is described as follows: Micelle surface attachment and internalization by Mφs, confocal microscopy. Type of data set: cell-based, murine. The note with it: 5 µM, 1:19 FAM-PA:Non-FAM-PA, LPS 0.1 µg/mL.
Data set [6] has the same test system. The data set is described as follows: Micelle association with Mφs by flow cytometry. The note with it: 5 µM, 1:19 FAM-PA:Non-FAM-PA. Type of data set: cell-based, murine.
Setting [7] is: LPS-treated (0.1 µg/mL) Mφs, six hours, flow cytometry.

For the substance “VIP(^SVIP)-KEKEKKKK-CONH2 [Palm2K-VIP-(KE)2K4]”, in data set [1], the Morphology entry is on record as “Mostly Spheres” and the Sphere diameter is given as 10 - 15 nm. The “combined α-helix and random coil content” value in data set [2] worked out at 46.5%.
As to “VIP(^SVIP)-KEKEKEKE-CONH2 [Palm2K-VIP-(KE)4]”, in data set [1], the Morphology result was “Small/Medium Cylinders” and the Cylinder length was 100 - 700 nm. In addition, the “cell viability relative to untreated cells” value in data set [3] (setting [7]) is listed as 70 - 80%. Also, the “modulation of TNF-α secretion” value in data set [4] (5 µM and 10 µM) is on record as “significant TNF-α suppression”. For the same substance, the “micelle location on/in Mφs” value in data set [5] (1 hour) is listed as “only found along the Mφ cell membrane”.
Regarding “Ac-HSDAVFTDNYTRLRKQMAVKKYLNSILN-CONH2 [VIP, reference compound]”, the Morphology entry in data set [1] is on record as “lacks any particle structure”. Further, in data set [2], the “organized secondary structure (α-helix and β-sheet)” value worked out at 49.4%. Further, the cytotoxicity entry in data set [3] (LPS-treated (0.1 µg/mL) Mφs, up to 5 µM, six hours, flow cytometry) is recorded as “Minimal cytotoxicity”. Besides, the “modulation of TNF-α secretion” value in data set [4] (1 µM and 2.5 µM) is “No appreciable modulation”; in data set [4] (5 µM and 10 µM) it was “significant TNF-α suppression”.
As for “VIP(^SVIP)-KEKEKKKK-CONH2 [Palm2K-^SVIP-(KE)2K4]”, in data set [1], the Morphology result was “Small/Medium Cylinders” and the Cylinder length is recorded as 100 - 400 nm. The “percentage of Mφs associated with fluorophore-labeled micelles” value in data set [6] (1 hour) is on record as “Mφs preferred to associate”.
On to “Ac-NSDLIATDSYTRMRKQVLANKKFHYLVN-NH2 [^SVIP]”, for which the Morphology entry in data set [1] is listed as “Amorphous aggregates”. In data set [2], the “organized secondary structure (α-helix and β-sheet)” value amounted to 46.6%. Also, in data set [3] (LPS-treated Mφs, 5 µM, 6 hours (Figure 3a)), the “viability of treated cells” value is recorded as “remained high”.
“VIP(^SVIP)-KEKEKEKE-CONH2 [Palm2K-^SVIP-(KE)4]”: in data set [1], the Morphology entry is “Spheres” and the Sphere diameter is reported as 10 - 15 nm. Also, in data set [2], the “combined α-helix and random coil content” value worked out at 41.5%.
Consider “VIP(^SVIP)-KEKEKEKE-CONH2 [PalmK-VIP-(KE)4]”, for which, in data set [1], the Morphology entry is “Mostly Large/Long Cylinders” and the Cylinder length is 1000 - 9000 nm. Also, the “cell viability relative to untreated cells” value in data set [3] (setting [7]) is given as 70 - 80%. The “micelle location on/in Mφs” value in data set [5] (1 hour) was “only found along the Mφ cell membrane”.
Consider “VIP(^SVIP)-KEKEEEEE-CONH2 [Palm2K-^SVIP-(KE)2E4]”, for which, in data set [1], the Morphology result is “Spheres + Short/Small Cylinders”, the Cylinder length was 50 - 250 nm and the Sphere diameter is on record as 10 - 20 nm.
As to “VIP(^SVIP)-KEKEEEEE-CONH2 [Palm2K-VIP-(KE)2E4]”, in data set [1], the Morphology entry is “Spheres + Short/Small Cylinders”, the Cylinder length is 20 - 300 nm and the Sphere diameter is recorded as 10 - 20 nm. In addition, the “micelle location on/in Mφs” value in data set [5] (6 hours) is reported as “cell membranes coated”. For the same substance, in data set [6] (6 hours), the “MFI of micelle-associated Mφs” value is reported as “greatest Mφ association”.
On to “VIP(^SVIP)-KEKEKEKE-CONH2 [PalmK-^SVIP-(KE)4]”, for which, in data set [1], the Morphology result was “Mostly Large/Long Cylinders” and the Cylinder length was 1000 - 9000 nm.
